Test results taken from ChEMBL document CHEMBL1201861, “Genomics of Drug Sensitity in Cancer screening data, Wellcome Trust Sanger Institute”.

Legend:
Assay in all cases: cells
D-502MG = assay type: functional, cell-based, Homo sapiens
Description: SANGER: Inhibition of human D-502MG cell growth in a cell viability assay.

DEL = assay type: functional, cell-based, Homo sapiens;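 also: growth inhibition of the human DEL cell line, read out with a cell viability assay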
Description: SANGER: Inhibition of human DEL cell growth in a cell viability assay.

DMS-114 = assay type: functional, cell-based, Homo sapiens
DOHH-2 = assay type: functional, cell-based, Homo sapiens;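 also: growth inhibition of human DOHH-2 cells, read out with a cell viability assay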
Description: SANGER: Inhibition of human DOHH-2 cell growth in a cell viability assay.

EM-2 = assay type: functional, cell-based, Homo sapiens;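 also: growth inhibition of EM-2 cells, read out with a cell viability assay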
Description: SANGER: Inhibition of human EM-2 cell growth in a cell viability assay.

ES3 = assay type: functional, cell-based, Homo sapiens;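 also: growth inhibition of ES3 cells, read out with a cell viability assay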
Description: SANGER: Inhibition of human ES3 cell growth in a cell viability assay.

ETK-1 = assay type: functional, cell-based, Homo sapiens;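 also: growth inhibition of human ETK-1 cells, read out with a cell viability assay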
Description: SANGER: Inhibition of human ETK-1 cell growth in a cell viability assay.

EW-11 = assay type: functional, cell-based, Homo sapiens;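 also: growth inhibition of human EW-11 cells, measured with a cell viability assay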
Description: SANGER: Inhibition of human EW-11 cell growth in a cell viability assay.

EW-13 = assay type: functional, cell-based, Homo sapiens;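 also: growth inhibition of EW-13 cells, read out with a cell viability assay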
Description: SANGER: Inhibition of human EW-13 cell growth in a cell viability assay.

EW-3 = assay type: functional, cell-based, Homo sapiens;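 also: cell viability assay read-out, IC50 reflects inhibition of growth of the EW-3 cells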
Description: SANGER: Inhibition of human EW-3 cell growth in a cell viability assay.

HCC 2998 = assay type: functional, cell-based, Homo sapiens;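 also: growth inhibition of human HCC2998 cells, measured with a cell viability read-out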
Description: SANGER: Inhibition of human HCC2998 cell growth in a cell viability assay.

HCE-T = assay type: functional, cell-based, Homo sapiens;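 also: cell viability assay read-out, reporting inhibition of HCE-T cell growth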
Description: SANGER: Inhibition of human HCE-T cell growth in a cell viability assay.

HH = assay type: functional, cell-based, Homo sapiens
Description: SANGER: Inhibition of human HH cell growth in a cell viability assay.

IST-SL1 = assay type: functional, cell-based, Homo sapiens;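 also: growth inhibition of human IST-SL1 cells, read out with a cell viability assay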
Description: SANGER: Inhibition of human IST-SL1 cell growth in a cell viability assay.

JVM-2 = assay type: functional, cell-based, Homo sapiens;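 also: growth inhibition of JVM-2 cells determined by a cell viability assay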
Description: SANGER: Inhibition of human JVM-2 cell growth in a cell viability assay.

JVM-3 = assay type: functional, cell-based, Homo sapiens;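 also: growth inhibition of human JVM-3 cells, read out with a cell viability assay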
Description: SANGER: Inhibition of human JVM-3 cell growth in a cell viability assay.

K5 = assay type: functional, cell-based, Homo sapiens
Description: SANGER: Inhibition of human K5 cell growth in a cell viability assay.

KALS-1 = assay type: functional, cell-based, Homo sapiens;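 also: growth inhibition of KALS-1 cells, determined with a cell viability assay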
Description: SANGER: Inhibition of human KALS-1 cell growth in a cell viability assay.

KARPAS-45 = assay type: functional, cell-based, Homo sapiens;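 also: inhibition of cell line growth, read out through a viability assay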
Description: SANGER: Inhibition of human KARPAS-45 cell growth in a cell viability assay.

KGN = assay type: functional, cell-based, Homo sapiens;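 also: growth inhibition of KGN cells, read out with a cell viability assay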
Description: SANGER: Inhibition of human KGN cell growth in a cell viability assay.

KNS-42 = assay type: functional, cell-based, Homo sapiens;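 also: growth inhibition of KNS-42 cells, read out with a cell viability assay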
Description: SANGER: Inhibition of human KNS-42 cell growth in a cell viability assay.

LAMA-84 = assay type: functional, cell-based, Homo sapiens;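 also: growth inhibition of LAMA-84 cells, read out with a cell viability assay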
Description: SANGER: Inhibition of human LAMA-84 cell growth in a cell viability assay.

LB2518-MEL = assay type: functional, cell-based, Homo sapiens;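 also: growth inhibition of human LB2518-MEL cells, measured with a cell viability assay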
Description: SANGER: Inhibition of human LB2518-MEL cell growth in a cell viability assay.

LB771-HNC = assay type: functional, cell-based, Homo sapiens;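 also: growth inhibition of LB771-HNC human cells, read out with a cell viability assay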
Description: SANGER: Inhibition of human LB771-HNC cell growth in a cell viability assay.

LB831-BLC = assay type: functional, cell-based, Homo sapiens;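 also: growth inhibition of LB831-BLC cells, read out with a cell viability assay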
Description: SANGER: Inhibition of human LB831-BLC cell growth in a cell viability assay.

LS-411N = assay type: functional, cell-based, Homo sapiens
LS-513 = assay type: functional, cell-based, Homo sapiens
Description: SANGER: Inhibition of human LS-513 cell growth in a cell viability assay.

MFM-223 = assay type: functional, cell-based, Homo sapiens
Description: SANGER: Inhibition of human MFM-223 cell growth in a cell viability assay.

MN-60 = assay type: functional, cell-based, Homo sapiens;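 also: growth inhibition of the MN-60 cell line, determined with a cell viability assay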
Description: SANGER: Inhibition of human MN-60 cell growth in a cell viability assay.

MS-1 = assay type: functional, cell-based, Homo sapiens
Description: SANGER: Inhibition of human MS-1 cell growth in a cell viability assay.

MV4-11 = assay type: functional, cell-based, Homo sapiens, MV-4-11;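 also: cell viability readout measuring growth inhibition of human MV-4-11 cells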
Description: SANGER: Inhibition of human MV-4-11 cell growth in a cell viability assay.

NCI-H1355 = assay type: functional, cell-based, Homo sapiens;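 also: growth inhibition of human NCI-H1355 cells, read out by a cell viability assay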
Description: SANGER: Inhibition of human NCI-H1355 cell growth in a cell viability assay.

NCI-H526 = assay type: functional, cell-based, Homo sapiens;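 also: growth inhibition of the human NCI-H526 cell line, measured by a cell viability assay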
Description: SANGER: Inhibition of human NCI-H526 cell growth in a cell viability assay.

NCI-N87 = assay type: functional, cell-based, Homo sapiens;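 also: growth inhibition of human NCI-N87 cells, read out with a cell viability assay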
Description: SANGER: Inhibition of human NCI-N87 cell growth in a cell viability assay.

NMC-G1 = assay type: functional, cell-based, Homo sapiens;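 also: growth inhibition of the NMC-G1 cell line, measured with a cell viability read-out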
Description: SANGER: Inhibition of human NMC-G1 cell growth in a cell viability assay.

OMC-1 = assay type: functional, cell-based, Homo sapiens;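 also: growth inhibition of the OMC-1 cell line, measured by a cell viability assay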
Description: SANGER: Inhibition of human OMC-1 cell growth in a cell viability assay.

P30-OHK = assay type: functional, cell-based, Homo sapiens;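 also: growth inhibition of the P30-OHK cell line, read out with a cell viability assay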
Description: SANGER: Inhibition of human P30-OHK cell growth in a cell viability assay.

RH-1 = assay type: functional, cell-based, Homo sapiens;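 also: growth inhibition of human RH-1 cells, read out with a cell viability assay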
Description: SANGER: Inhibition of human RH-1 cell growth in a cell viability assay.

RPMI-8226 = assay type: functional, cell-based, Homo sapiens
Description: SANGER: Inhibition of human RPMI-8226 cell growth in a cell viability assay.

SH-4 = assay type: functional, cell-based, Homo sapiens;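 also: growth inhibition of SH-4 cells, read out with a cell viability assay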
Description: SANGER: Inhibition of human SH-4 cell growth in a cell viability assay.

SK-N-DZ = assay type: functional, cell-based, Homo sapiens;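 also: growth inhibition of the cancer cell line, read out through a viability assay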
Description: SANGER: Inhibition of human SK-N-DZ cell growth in a cell viability assay.

SK-NEP-1 = assay type: functional, cell-based, Homo sapiens;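 also: growth inhibition of human SK-NEP-1 cells, read out by a cell viability assay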
Description: SANGER: Inhibition of human SK-NEP-1 cell growth in a cell viability assay.

SNU-C2B = assay type: functional, cell-based, Homo sapiens;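 also: cell viability readout used to measure compound-driven suppression of SNU-C2B cell proliferation, IC50 marking half-maximal growth inhibition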
Description: SANGER: Inhibition of human SNU-C2B cell growth in a cell viability assay.

ALL-PO = assay type: functional, cell-based, Homo sapiens;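 also: growth inhibition of ALL-PO cells, read out by a cell viability assay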
Description: SANGER: Inhibition of human ALL-PO cell growth in a cell viability assay.

ATN-1 = assay type: functional, cell-based, Homo sapiens;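 also: growth inhibition of human ATN-1 cells, read out with a cell viability assay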
Description: SANGER: Inhibition of human ATN-1 cell growth in a cell viability assay.

BV-173 = assay type: functional, cell-based, Homo sapiens
Description: SANGER: Inhibition of human BV-173 cell growth in a cell viability assay.

C2BBe1 = assay type: functional, cell-based, Homo sapiens;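 also: growth inhibition of C2BBe1 cells, read out through a viability assay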
Description: SANGER: Inhibition of human C2BBe1 cell growth in a cell viability assay.

CAS-1 = assay type: functional, cell-based, Homo sapiens;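 also: growth inhibition of CAS-1 cells, measured with a cell viability assay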
Description: SANGER: Inhibition of human CAS-1 cell growth in a cell viability assay.

BLEOMYCIN
IC50 (D-502MG; d-502mg): 1010 µM | IC50 (DEL; del): 0.48 µM | IC50 (DMS-114; dms-114): 6.79 µM | IC50 (DOHH-2; dohh-2): 5.29 µM | IC50 (EM-2; em-2): 84.8 µM | IC50 (ES3; es3): 1.61 µM | IC50 (ETK-1; etk-1): 0.0805 µM | IC50 (EW-11; ew-11): 6.41 µM | IC50 (EW-13; ew-13): 0.292 µM | IC50 (EW-3; ew-3): 18.5 µM | IC50 (HCC 2998; hcc 2998): 0.00659 µM | IC50 (HCE-T; hce-t): 2.83 µM | IC50 (HH; hh): 2.29 µM | IC50 (IST-SL1; ist-sl1): 54.6 µM | IC50 (JVM-2; jvm-2): 0.572 µM | IC50 (JVM-3; jvm-3): 429 µM | IC50 (K5; k5): 72.4 µM | IC50 (KALS-1; kals-1): 11.7 µM | IC50 (KARPAS-45; karpas-45): 213 µM | IC50 (KGN; kgn): 0.00371 µM | IC50 (KNS-42; kns-42): 693 µM | IC50 (LAMA-84; lama-84): 4.29 µM | IC50 (LB2518-MEL; lb2518-mel): 0.182 µM | IC50 (LB771-HNC; lb771-hnc): 209 µM | IC50 (LB831-BLC; lb831-blc): 8.38 µM | IC50 (LS-411N; ls-411n): 0.0528 µM | IC50 (LS-513; ls-513): 29 µM | IC50 (MFM-223; mfm-223): 11000 µM | IC50 (MN-60; mn-60): 4.05 µM | IC50 (MS-1; ms-1): 156 µM | IC50 (MV4-11; mv-4-11): 0.00991 µM | IC50 (NCI-H1355; nci-h1355): 8.2 µM | IC50 (NCI-H526; nci-h526): 1.28 µM | IC50 (NCI-N87; nci-n87): 2.96 µM | IC50 (NMC-G1; nmc-g1): 0.0119 µM | IC50 (OMC-1; omc-1): 11.9 µM | IC50 (P30-OHK; p30-ohk): 7.1 µM | IC50 (RH-1; rh-1): 0.152 µM | IC50 (RPMI-8226; rpmi-8226): 906 µM | IC50 (SH-4; sh-4): 7.85 µM | IC50 (SK-N-DZ; sk-n-dz): 170 µM | IC50 (SK-NEP-1; sk-nep-1): 31.9 µM | IC50 (SNU-C2B; snu-c2b): 2.32 µM | IC50 (ALL-PO; all-po): 0.986 µM | IC50 (ATN-1; atn-1): 18.9 µM | IC50 (BV-173; bv-173): 0.855 µM | IC50 (C2BBe1; c2bbe1): 91.8 µM | IC50 (CAS-1; cas-1): 81 µM

O=C(O)c1ccc(-c2c[nH]c3ncc(-c4ccccc4)cc23)cc1C1CCCC1 [GSK-650394]
IC50 (D-502MG; Homo sapiens, D-502MG): > 16 µM | IC50 (DEL; Homo sapiens, DEL): 5.11 µM | IC50 (DMS-114; Homo sapiens, DMS-114): > 16 µM | IC50 (DOHH-2; Homo sapiens, DOHH-2): > 16 µM | IC50 (EM-2; Homo sapiens, EM-2): > 16 µM | IC50 (ES3; Homo sapiens, ES3): > 16 µM | IC50 (ETK-1; Homo sapiens, ETK-1): 10.1 µM | IC50 (EW-11; Homo sapiens, EW-11): > 16 µM | IC50 (EW-13; Homo sapiens, EW-13): 3.02 µM | IC50 (EW-3; Homo sapiens, EW-3): > 16 µM | IC50 (HCC 2998; Homo sapiens, HCC 2998): > 16 µM | IC50 (HCE-T; Homo sapiens, HCE-T): > 16 µM | IC50 (HH; Homo sapiens, HH): > 16 µM | IC50 (IST-SL1; Homo sapiens, IST-SL1): > 16 µM | IC50 (JVM-2; Homo sapiens, JVM-2): > 16 µM | IC50 (JVM-3; Homo sapiens, JVM-3): > 16 µM | IC50 (K5; Homo sapiens, K5): > 16 µM | IC50 (KALS-1; Homo sapiens, KALS-1): > 16 µM | IC50 (KARPAS-45; Homo sapiens, KARPAS-45): > 16 µM | IC50 (KGN; Homo sapiens, KGN): > 16 µM | IC50 (KNS-42; Homo sapiens, KNS-42): > 16 µM | IC50 (LAMA-84; Homo sapiens, LAMA-84): 10.2 µM | IC50 (LB2518-MEL; Homo sapiens, LB2518-MEL): > 16 µM | IC50 (LB771-HNC; Homo sapiens, LB771-HNC): > 16 µM | IC50 (LB831-BLC; Homo sapiens, LB831-BLC): > 16 µM | IC50 (LS-411N; Homo sapiens, LS-411N): 10.4 µM | IC50 (LS-513; Homo sapiens, LS-513): > 16 µM | IC50 (MFM-223; Homo sapiens, MFM-223): > 16 µM | IC50 (MN-60; Homo sapiens, MN-60): > 16 µM | IC50 (MS-1; Homo sapiens, MS-1): > 16 µM | IC50 (MV4-11; Homo sapiens, MV4-11): 0.165 µM | IC50 (NCI-H1355; Homo sapiens, NCI-H1355): > 16 µM | IC50 (NCI-H526; Homo sapiens, NCI-H526): 6.04 µM | IC50 (NCI-N87; Homo sapiens, NCI-N87): > 16 µM | IC50 (NMC-G1; Homo sapiens, NMC-G1): > 16 µM | IC50 (OMC-1; Homo sapiens, OMC-1): > 16 µM | IC50 (P30-OHK; Homo sapiens, P30-OHK): 6.21 µM | IC50 (RH-1; Homo sapiens, RH-1): 7.73 µM | IC50 (RPMI-8226; Homo sapiens, RPMI-8226): > 16 µM | IC50 (SH-4; Homo sapiens, SH-4): > 16 µM | IC50 (SK-N-DZ; Homo sapiens, SK-N-DZ): > 16 µM | IC50 (SK-NEP-1; Homo sapiens, SK-NEP-1): > 16 µM | IC50 (SNU-C2B; Homo sapiens, SNU-C2B): > 16 µM | IC50 (ALL-PO; Homo sapiens, ALL-PO): 5.73 µM | IC50 (ATN-1; Homo sapiens, ATN-1): > 16 µM | IC50 (BV-173; Homo sapiens, BV-173): > 16 µM | IC50 (C2BBe1; Homo sapiens, C2BBe1): > 16 µM | IC50 (CAS-1; Homo sapiens, CAS-1): 11 µM

COc1cccc2c1C(=O)c1c(O)c3c(c(O)c1C2=O)C[C@@](O)(C(=O)CO)C[C@@H]3O[C@H]1C[C@H](N)[C@H](O)[C@H](C)O1 [DOXORUBICIN]
IC50 (D-502MG; Homo sapiens, D-502MG): > 1.02 µM | IC50 (DEL; Homo sapiens, DEL): 0.0384 µM | IC50 (DMS-114; Homo sapiens, DMS-114): 0.396 µM | IC50 (DOHH-2; Homo sapiens, DOHH-2): 0.02 µM | IC50 (EM-2; Homo sapiens, EM-2): 0.325 µM | IC50 (ES3; Homo sapiens, ES3): 0.0895 µM | IC50 (ETK-1; Homo sapiens, ETK-1): 0.083 µM | IC50 (EW-11; Homo sapiens, EW-11): 0.342 µM | IC50 (EW-13; Homo sapiens, EW-13): 0.00963 µM | IC50 (EW-3; Homo sapiens, EW-3): 0.28 µM | IC50 (HCC 2998; Homo sapiens, HCC 2998): 0.0174 µM | IC50 (HCE-T; Homo sapiens, HCE-T): 0.165 µM | IC50 (HH; Homo sapiens, HH): 0.241 µM | IC50 (IST-SL1; Homo sapiens, IST-SL1): 0.517 µM | IC50 (JVM-2; Homo sapiens, JVM-2): 0.242 µM | IC50 (JVM-3; Homo sapiens, JVM-3): > 1.02 µM | IC50 (K5; Homo sapiens, K5): 0.0969 µM | IC50 (KALS-1; Homo sapiens, KALS-1): 0.0293 µM | IC50 (KARPAS-45; Homo sapiens, KARPAS-45): > 1.02 µM | IC50 (KGN; Homo sapiens, KGN): 0.00634 µM | IC50 (KNS-42; Homo sapiens, KNS-42): 0.243 µM | IC50 (LAMA-84; Homo sapiens, LAMA-84): 0.437 µM | IC50 (LB2518-MEL; Homo sapiens, LB2518-MEL): 0.413 µM | IC50 (LB771-HNC; Homo sapiens, LB771-HNC): > 1.02 µM | IC50 (LB831-BLC; Homo sapiens, LB831-BLC): 0.206 µM | IC50 (LS-411N; Homo sapiens, LS-411N): 0.0991 µM | IC50 (LS-513; Homo sapiens, LS-513): > 1.02 µM | IC50 (MFM-223; Homo sapiens, MFM-223): > 1.02 µM | IC50 (MN-60; Homo sapiens, MN-60): 0.605 µM | IC50 (MS-1; Homo sapiens, MS-1): 0.253 µM | IC50 (MV4-11; Homo sapiens, MV4-11): 0.01 µM | IC50 (NCI-H1355; Homo sapiens, NCI-H1355): 0.152 µM | IC50 (NCI-H526; Homo sapiens, NCI-H526): 0.05 µM | IC50 (NCI-N87; Homo sapiens, NCI-N87): 0.48 µM | IC50 (NMC-G1; Homo sapiens, NMC-G1): 0.139 µM | IC50 (OMC-1; Homo sapiens, OMC-1): 0.172 µM | IC50 (P30-OHK; Homo sapiens, P30-OHK): 0.0576 µM | IC50 (RH-1; Homo sapiens, RH-1): 0.00673 µM | IC50 (RPMI-8226; Homo sapiens, RPMI-8226): 0.213 µM | IC50 (SH-4; Homo sapiens, SH-4): 0.0921 µM | IC50 (SK-N-DZ; Homo sapiens, SK-N-DZ): > 1.02 µM | IC50 (SK-NEP-1; Homo sapiens, SK-NEP-1): 0.116 µM | IC50 (SNU-C2B; Homo sapiens, SNU-C2B): 0.461 µM | IC50 (ALL-PO; Homo sapiens, ALL-PO): 0.065 µM | IC50 (ATN-1; Homo sapiens, ATN-1): 0.128 µM | IC50 (BV-173; Homo sapiens, BV-173): 0.251 µM | IC50 (C2BBe1; Homo sapiens, C2BBe1): > 1.02 µM | IC50 (CAS-1; Homo sapiens, CAS-1): 0.238 µM
